From publication PMC5524190 (Biochemistry, 2016)
Where two headings read alike, the source gives them in different places.

Legend:
BaIMPDHΔL [1] = type: biochemical, Bacillus anthracis
BaIMPDHΔL [2] = type: biochemical, Bacillus anthracis; remark: listed apart in the source

Compound: NC(=O)c1ccc[n+]([C@@H]2O[C@H](COP(=O)([O-])OP(=O)(O)OC[C@H]3O[C@@H](n4cnc5c(N)ncnc54)[C@H](O)[C@@H]3O)[C@@H](O)[C@H]2O)c1 [NAD^+]
- Ki (BaIMPDHΔL [1]; read-out: Ki(B), observed ± std.err.): 7400 ± 400 µM
- Km (BaIMPDHΔL [1]; read-out: Km(B), observed ± std.err.): 460 ± 20 µM
- k2 (BaIMPDHΔL [2]): 31800 M⁻¹ s⁻¹
- k−2 (BaIMPDHΔL [2]): 10.9 s⁻¹
- k−7 (BaIMPDHΔL [2]): 566000 s⁻¹
- lower limit of k−7 (substrate inhibition by NAD+) (BaIMPDHΔL [2]): > 4000 M⁻¹ s⁻¹
- Ki (BaIMPDHΔL [2]; read-out: Ki(B), predicted): 6610 µM
- Km (BaIMPDHΔL [2]; read-out: Km(B), predicted): 415 µM
- Kd (BaIMPDHΔL [2]; read-out: dissociation equilibrium constant k−7/k7 (substrate inhibition by NAD+)): ~5500 µM

Compound: NC(=O)C1=CN([C@@H]2O[C@H](COP(=O)(O)OP(=O)(O)OC[C@H]3O[C@@H](n4cnc5c(N)ncnc54)[C@H](O)[C@@H]3O)[C@@H](O)[C@H]2O)C=CC1 [NADH]
- Ki (BaIMPDHΔL [1]; read-out: Ki(Q), observed ± std.err.): 620 ± 360 µM
- Ki (BaIMPDHΔL [1]; read-out: Ki(Q,B), observed ± std.err.): 97 ± 9 µM
- lower limit of k4 (NADH rebinding) (BaIMPDHΔL [2]): > 2e+06 M⁻¹ s⁻¹
- Ki (BaIMPDHΔL [2]; read-out: Ki(Q), predicted): 301 µM
- Ki (BaIMPDHΔL [2]; read-out: Ki(Q,B), predicted): 87.2 µM
